{"source": "paper PMC6858451", "about": "“Rhesus Theta Defensin 1 Promotes Long Term Survival in Systemic Candidiasis by Host Directed Mechanisms” (Scientific Reports, 2019)", "key": {"C. albicans": {"test_system": "C. albicans", "conditions": "planktonic cells; cited from earlier work", "excerpt": "RTD-1 is the prototype θ-defensin, the only known backbone cyclized polypeptides in the Animal Kingdom. All natural θ-defensin isoforms are 18-amino acid macrocycles stabilized by a six cysteine, tridisulfide core. […] As reported here and elsewhere, RTD-1 kills Candida ..."}, "[1]": {"experiment": "RTD-1 tolerability/toxicity in naive mice", "type": "in vivo, BALB/c mice", "experimental": "RTD-1 tolerability/toxicity was evaluated by i.p. dosing of naÏve BALB/c mice with RTD-1 at 5 mg/kg RTD-1 daily for 7 days, 20 mg/kg every other day for 10 days, and once at 50 mg/kg."}, "[2]": {"test_system": "C. albicans 53264 biofilms", "experiment": "Biofilm XTT metabolic assay", "type": "cell-based", "conditions": "pre-adhesion, 2 h adherent and 24 h mature biofilms", "experimental": "The antifungal activities of RTD-1, caspofungin and fluconazole were evaluated against biofilms of C. albicans SC5314 and 53264 essentially as described by Pierce et al.[67]. Briefly, biofilms established for 0 h (preadhesion), 2 h (adherent), or 24 h (mature) were developed by adding 1 × 10^5 yeast cells in 50 or 100 µl of RPMI-1640 to wells of flat-bottom 96-well microtiter plates (Costar, Corning, NY). Fifty or 100 µl aliquots of serial 2-fold dilutions of peptide or antifungal drugs were added to wells in triplicate and incubated for 24 h or 48 h prior to analysis of biofilm metabolic activities. Concentrations of reagents used were as follows: RTD-1 - 0.09 – 100 µg/ml (0.05–48 µM), Fluco – 1–250 µg/ml (3.3–816.3 µM); Caspo- 0.003–8 µg/ml ([…]–7.3 µM). Analysis of the effect of each agent on Candida biofilms was performed using an XTT colorimetric assay. One hundred µl of 1 µM XTT/menadione added to each biofilm well, plates were incubated in the dark for 3 h at 37 °C, and 80 µl of supernatant was transferred to a new 96-well flat-bottom microtiter plate (Greiner Bio-one, Monroe, NC). Absorbance was measured at 490 nm on a SpectraMax® i3x (Molecular Devices). Readings were plotted as average of triplicates after subtracting the corresponding values for negative controls (XTT/menadione only)."}, "[3]": {"test_system": "blood neutrophils, monocytes and inflammatory cytokines", "experiment": "Hematology and plasma cytokine analyses in naive and candidemic mice", "type": "in vivo", "excerpt": "EDTA-anticoagulated blood was collected aseptically by terminal cardiac puncture and analyzed for complete blood cell count using a HemaVet 950 FS hematology analyzer (Drew Scientific). Plasma cytokine levels plasma were quantified using a mouse-specific MILLIPLEX MAP kit (Millipore) as described."}, "[4]": {"conditions": "cited from earlier work"}, "[5]": {"conditions": "candidemic mice, single 5 mg/kg i.p., 7 days p.i."}, "[6]": {"conditions": "long term survivors, day 30 p.i."}}, "note": "Bridge positions count the residues as written; N and C are the ends. Peptide text beside a SMILES is read from it."}
{"molecule": "CC[C@H](C)[C@@H]1NC(=O)[C@@H]2CSSC[C@H](NC(=O)[C@H](CCCNC(=N)N)NC(=O)[C@@H]3CSSC[C@H](NC1=O)C(=O)N[C@@H]([C@@H](C)O)C(=O)N[C@@H](CCCNC(=N)N)C(=O)NCC(=O)N[C@@H](Cc1ccccc1)C(=O)N3)C(=O)N[C@@H](CC(C)C)C(=O)N[C@H]1CSSC[C@H](NC(=O)[C@H](C(C)C)NC(=O)CNC(=O)[C@H](CCCNC(=N)N)NC(=O)[C@H](CCCNC(=N)N)NC1=O)C(=O)N[C@@H](CCCNC(=N)N)C(=O)N2", "note": "[RTD-1, Rhesus theta (θ) defensin-1] (cyclo(GFCRCLCRRGVCRCICTR); disulfide 3-16, 5-14, 7-12 (inferred); ring closure inferred)", "values": [{"measurement": "time to permeabilization of C. albicans to propidium iodide", "setting": "C. albicans", "result": "< 10", "unit": "min"}, {"measurement": "tolerability", "setting": "[1]; i.p. 5 mg/kg daily for 7 days, 20 mg/kg every other day for 10 days, once 50 mg/kg, observation at least 14 days", "result": "tolerated RTD-1 dosing at all levels"}, {"measurement": "toxicity", "setting": "[1]; summary statement (Results)", "result": "non-toxic"}, {"measurement": "biofilm inhibition (XTT)", "setting": "[2]", "result": "inhibited biofilm formation"}, {"measurement": "blood neutrophil counts", "setting": "[3]; candidemic mice (SC5314), single 5 mg/kg i.p. at T = 0, 4 h p.i.", "result": "significantly (P = 0.008) increased blood neutrophil counts"}, {"measurement": "blood neutrophil counts", "setting": "[3]; candidemic mice, single 5 mg/kg i.p. at T = 0, day 7, vs saline", "result": "significantly (P = 0.0002) lower"}, {"measurement": "IL-10 or IL-6 levels", "setting": "[3]; [5]", "result": "no effect"}, {"measurement": "blood proinflammatory cytokines TNF, IL-1β and IL-17", "setting": "[3]; [5]", "result": "significant reduction"}, {"measurement": "circulating granulocytes", "setting": "[3]; [6]", "result": "homeostatic normalization of circulating granulocytes"}, {"measurement": "levels of TNF, IL-10 and IL-6", "setting": "[3]; [6]", "result": "normalized to those of uninfected controls"}, {"measurement": "blood cytokine levels", "setting": "[3]; naive mice", "result": "did not alter the levels of these cytokines"}, {"measurement": "increase of blood neutrophils", "setting": "[3]; naive mice, single 5 mg/kg i.p., 4 h, P = 0.32", "result": 2.3, "unit": "fold"}, {"measurement": "stability in serum and plasma", "setting": "[4]", "result": "highly stable"}]}
